Laboratory results: ChEMBL document CHEMBL5291721, “A preclinical secondary pharmacology resource illuminates target-adverse drug reaction associations of marketed drugs” (Nat Commun, 2023)

Legend:
[1] = biological target: 5-hydroxytryptamine receptor 2B (Homo sapiens, UniProt P41595); format: functional, cell-based
[2] = biological target: T1, Alpha-2A adrenergic receptor (Homo sapiens, UniProt P08913)
T1 sequence (P08913 whole entry): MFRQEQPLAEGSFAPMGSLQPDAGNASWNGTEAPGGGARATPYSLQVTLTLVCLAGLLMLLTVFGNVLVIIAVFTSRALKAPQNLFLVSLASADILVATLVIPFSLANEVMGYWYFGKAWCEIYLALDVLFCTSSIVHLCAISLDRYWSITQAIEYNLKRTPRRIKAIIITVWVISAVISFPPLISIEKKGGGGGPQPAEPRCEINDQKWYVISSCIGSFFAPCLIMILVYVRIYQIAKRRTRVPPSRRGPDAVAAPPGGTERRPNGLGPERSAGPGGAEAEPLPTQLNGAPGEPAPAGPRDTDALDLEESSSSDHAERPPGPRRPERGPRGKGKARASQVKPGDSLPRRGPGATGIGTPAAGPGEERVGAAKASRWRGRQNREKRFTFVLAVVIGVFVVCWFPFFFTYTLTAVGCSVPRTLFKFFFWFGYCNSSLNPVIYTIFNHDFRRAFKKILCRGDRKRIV

[3] = biological target: T2, Amine oxidase [flavin-containing] A (Homo sapiens, UniProt P21397); format: functional
T2 sequence (P21397 whole entry): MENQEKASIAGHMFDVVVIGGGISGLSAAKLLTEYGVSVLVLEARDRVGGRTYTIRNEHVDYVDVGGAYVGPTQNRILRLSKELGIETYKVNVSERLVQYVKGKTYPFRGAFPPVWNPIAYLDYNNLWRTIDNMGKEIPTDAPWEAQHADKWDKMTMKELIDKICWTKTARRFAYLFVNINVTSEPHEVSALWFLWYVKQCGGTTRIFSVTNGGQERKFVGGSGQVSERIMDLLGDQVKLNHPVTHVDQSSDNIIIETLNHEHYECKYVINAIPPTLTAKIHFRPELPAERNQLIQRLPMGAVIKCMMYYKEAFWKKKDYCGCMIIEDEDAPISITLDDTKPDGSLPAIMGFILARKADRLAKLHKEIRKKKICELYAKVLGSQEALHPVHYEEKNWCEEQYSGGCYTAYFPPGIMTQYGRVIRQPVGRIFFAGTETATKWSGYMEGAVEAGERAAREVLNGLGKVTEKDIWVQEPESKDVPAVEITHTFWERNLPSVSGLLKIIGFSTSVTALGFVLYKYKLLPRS

[4] = biological target: cGMP-inhibited 3',5'-cyclic phosphodiesterase 3A (Homo sapiens, UniProt Q14432); format: functional
[5] = biological target: T3, 5-hydroxytryptamine receptor 1A (Homo sapiens, UniProt P08908)
T3 sequence (P08908 whole entry): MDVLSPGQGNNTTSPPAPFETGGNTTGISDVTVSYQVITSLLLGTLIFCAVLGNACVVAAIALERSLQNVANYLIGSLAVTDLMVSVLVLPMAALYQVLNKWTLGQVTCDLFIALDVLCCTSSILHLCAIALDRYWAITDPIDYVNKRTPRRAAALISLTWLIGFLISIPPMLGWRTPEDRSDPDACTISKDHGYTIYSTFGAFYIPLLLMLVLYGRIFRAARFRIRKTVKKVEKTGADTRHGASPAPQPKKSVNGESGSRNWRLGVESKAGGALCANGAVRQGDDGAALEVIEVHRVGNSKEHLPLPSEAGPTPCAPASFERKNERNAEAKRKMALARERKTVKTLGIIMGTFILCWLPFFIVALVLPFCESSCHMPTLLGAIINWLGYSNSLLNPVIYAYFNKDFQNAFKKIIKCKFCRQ

[6] = biological target: Voltage-gated inwardly rectifying potassium channel KCNH2 (Homo sapiens, UniProt Q12809); format: functional; details: read-out: AC50
[7] = biological target: T4, Muscarinic acetylcholine receptor M2 (Homo sapiens, UniProt P08172)
T4 sequence (P08172 whole entry): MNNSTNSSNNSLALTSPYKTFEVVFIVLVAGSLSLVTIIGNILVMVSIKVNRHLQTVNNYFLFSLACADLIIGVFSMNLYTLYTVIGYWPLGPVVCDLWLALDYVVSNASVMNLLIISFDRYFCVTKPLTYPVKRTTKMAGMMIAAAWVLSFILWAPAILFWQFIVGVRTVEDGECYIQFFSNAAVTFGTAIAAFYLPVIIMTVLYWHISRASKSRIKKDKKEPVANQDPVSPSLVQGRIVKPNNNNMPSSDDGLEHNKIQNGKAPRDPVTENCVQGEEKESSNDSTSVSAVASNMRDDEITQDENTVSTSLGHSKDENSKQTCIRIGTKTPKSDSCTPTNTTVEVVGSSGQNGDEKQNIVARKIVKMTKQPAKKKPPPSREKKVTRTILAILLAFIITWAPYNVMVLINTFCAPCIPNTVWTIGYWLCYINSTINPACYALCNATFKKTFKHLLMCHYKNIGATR

Mu-type opioid receptor = Mu-type opioid receptor (Homo sapiens, UniProt P35372)
Prothrombin = Prothrombin (Homo sapiens, UniProt P00734); format: functional
[8] = biological target: Prostaglandin G/H synthase 1 (Homo sapiens, UniProt P23219); format: functional
Histamine H3 receptor = Histamine H3 receptor (Homo sapiens, UniProt Q9Y5N1)
D(1A) dopamine receptor = D(1A) dopamine receptor (Homo sapiens, UniProt P21728)
Also: assay procedure not described here.

Chain of Mu-type opioid receptor (P35372 whole entry): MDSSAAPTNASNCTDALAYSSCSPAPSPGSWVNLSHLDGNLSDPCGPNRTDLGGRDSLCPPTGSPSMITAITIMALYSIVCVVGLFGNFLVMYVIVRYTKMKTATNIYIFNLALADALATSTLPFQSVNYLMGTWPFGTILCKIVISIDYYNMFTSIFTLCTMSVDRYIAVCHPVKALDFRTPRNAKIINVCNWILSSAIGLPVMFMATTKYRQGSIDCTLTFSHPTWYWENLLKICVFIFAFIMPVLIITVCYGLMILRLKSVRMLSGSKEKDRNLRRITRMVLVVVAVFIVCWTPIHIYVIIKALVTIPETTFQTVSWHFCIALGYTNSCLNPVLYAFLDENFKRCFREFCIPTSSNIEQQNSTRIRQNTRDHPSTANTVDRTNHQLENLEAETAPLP
Chain of D(1A) dopamine receptor (P21728 whole entry): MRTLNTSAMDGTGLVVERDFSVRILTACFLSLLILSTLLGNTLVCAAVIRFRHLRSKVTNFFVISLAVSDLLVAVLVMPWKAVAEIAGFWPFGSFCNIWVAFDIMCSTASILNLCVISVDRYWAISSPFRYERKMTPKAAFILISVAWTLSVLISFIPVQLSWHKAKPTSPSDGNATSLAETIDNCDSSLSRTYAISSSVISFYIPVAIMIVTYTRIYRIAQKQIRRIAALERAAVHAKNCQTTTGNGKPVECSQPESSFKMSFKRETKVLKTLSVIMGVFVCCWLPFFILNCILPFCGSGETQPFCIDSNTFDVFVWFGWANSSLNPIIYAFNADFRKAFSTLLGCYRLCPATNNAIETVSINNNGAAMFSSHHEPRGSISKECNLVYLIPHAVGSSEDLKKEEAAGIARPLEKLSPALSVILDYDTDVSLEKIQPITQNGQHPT
Chain of Histamine H3 receptor (Q9Y5N1 whole entry): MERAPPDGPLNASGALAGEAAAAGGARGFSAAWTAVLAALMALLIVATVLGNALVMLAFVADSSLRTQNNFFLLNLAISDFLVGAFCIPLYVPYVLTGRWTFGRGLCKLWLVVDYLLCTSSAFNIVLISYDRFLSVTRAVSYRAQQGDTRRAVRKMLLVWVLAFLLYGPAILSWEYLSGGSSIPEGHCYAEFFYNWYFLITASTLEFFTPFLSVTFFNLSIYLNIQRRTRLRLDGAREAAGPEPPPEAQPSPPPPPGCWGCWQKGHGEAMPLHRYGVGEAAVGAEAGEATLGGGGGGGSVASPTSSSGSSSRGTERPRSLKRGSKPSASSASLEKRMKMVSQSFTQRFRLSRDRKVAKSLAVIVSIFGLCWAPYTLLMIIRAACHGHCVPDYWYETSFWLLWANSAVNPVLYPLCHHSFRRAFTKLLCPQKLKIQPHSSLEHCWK
Chain of Voltage-gated inwardly rectifying potassium channel KCNH2 (Q12809 whole entry): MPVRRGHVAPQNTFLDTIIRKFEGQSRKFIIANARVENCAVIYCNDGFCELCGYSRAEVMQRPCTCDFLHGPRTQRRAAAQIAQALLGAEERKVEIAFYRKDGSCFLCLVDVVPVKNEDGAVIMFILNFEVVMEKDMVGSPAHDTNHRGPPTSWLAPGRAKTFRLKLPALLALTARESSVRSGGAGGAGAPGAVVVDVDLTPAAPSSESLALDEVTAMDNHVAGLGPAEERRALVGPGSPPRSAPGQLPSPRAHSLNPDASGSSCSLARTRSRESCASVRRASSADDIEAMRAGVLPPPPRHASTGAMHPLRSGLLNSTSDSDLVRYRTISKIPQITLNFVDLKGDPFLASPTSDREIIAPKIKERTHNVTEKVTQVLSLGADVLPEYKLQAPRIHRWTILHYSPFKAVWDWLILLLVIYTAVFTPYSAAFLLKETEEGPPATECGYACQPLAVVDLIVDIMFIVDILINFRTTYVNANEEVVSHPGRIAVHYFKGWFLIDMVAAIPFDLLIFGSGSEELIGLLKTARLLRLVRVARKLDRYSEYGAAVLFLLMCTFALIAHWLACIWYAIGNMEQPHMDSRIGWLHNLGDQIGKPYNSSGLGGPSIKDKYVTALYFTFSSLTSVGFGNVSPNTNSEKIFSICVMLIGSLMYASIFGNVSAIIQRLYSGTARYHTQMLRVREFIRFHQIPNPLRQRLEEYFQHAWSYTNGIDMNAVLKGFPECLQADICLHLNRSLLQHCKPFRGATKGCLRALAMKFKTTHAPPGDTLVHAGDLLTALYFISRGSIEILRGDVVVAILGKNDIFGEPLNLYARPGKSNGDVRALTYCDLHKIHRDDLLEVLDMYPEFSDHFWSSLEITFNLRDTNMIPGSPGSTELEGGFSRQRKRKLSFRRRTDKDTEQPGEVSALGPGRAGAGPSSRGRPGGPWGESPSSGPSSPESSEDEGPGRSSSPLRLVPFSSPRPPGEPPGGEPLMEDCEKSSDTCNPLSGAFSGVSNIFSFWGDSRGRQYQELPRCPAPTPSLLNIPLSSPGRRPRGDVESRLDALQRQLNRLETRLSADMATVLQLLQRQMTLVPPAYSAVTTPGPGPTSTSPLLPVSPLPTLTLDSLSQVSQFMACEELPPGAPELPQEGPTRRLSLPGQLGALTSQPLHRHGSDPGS
Chain of cGMP-inhibited 3',5'-cyclic phosphodiesterase 3A (Q14432 whole entry): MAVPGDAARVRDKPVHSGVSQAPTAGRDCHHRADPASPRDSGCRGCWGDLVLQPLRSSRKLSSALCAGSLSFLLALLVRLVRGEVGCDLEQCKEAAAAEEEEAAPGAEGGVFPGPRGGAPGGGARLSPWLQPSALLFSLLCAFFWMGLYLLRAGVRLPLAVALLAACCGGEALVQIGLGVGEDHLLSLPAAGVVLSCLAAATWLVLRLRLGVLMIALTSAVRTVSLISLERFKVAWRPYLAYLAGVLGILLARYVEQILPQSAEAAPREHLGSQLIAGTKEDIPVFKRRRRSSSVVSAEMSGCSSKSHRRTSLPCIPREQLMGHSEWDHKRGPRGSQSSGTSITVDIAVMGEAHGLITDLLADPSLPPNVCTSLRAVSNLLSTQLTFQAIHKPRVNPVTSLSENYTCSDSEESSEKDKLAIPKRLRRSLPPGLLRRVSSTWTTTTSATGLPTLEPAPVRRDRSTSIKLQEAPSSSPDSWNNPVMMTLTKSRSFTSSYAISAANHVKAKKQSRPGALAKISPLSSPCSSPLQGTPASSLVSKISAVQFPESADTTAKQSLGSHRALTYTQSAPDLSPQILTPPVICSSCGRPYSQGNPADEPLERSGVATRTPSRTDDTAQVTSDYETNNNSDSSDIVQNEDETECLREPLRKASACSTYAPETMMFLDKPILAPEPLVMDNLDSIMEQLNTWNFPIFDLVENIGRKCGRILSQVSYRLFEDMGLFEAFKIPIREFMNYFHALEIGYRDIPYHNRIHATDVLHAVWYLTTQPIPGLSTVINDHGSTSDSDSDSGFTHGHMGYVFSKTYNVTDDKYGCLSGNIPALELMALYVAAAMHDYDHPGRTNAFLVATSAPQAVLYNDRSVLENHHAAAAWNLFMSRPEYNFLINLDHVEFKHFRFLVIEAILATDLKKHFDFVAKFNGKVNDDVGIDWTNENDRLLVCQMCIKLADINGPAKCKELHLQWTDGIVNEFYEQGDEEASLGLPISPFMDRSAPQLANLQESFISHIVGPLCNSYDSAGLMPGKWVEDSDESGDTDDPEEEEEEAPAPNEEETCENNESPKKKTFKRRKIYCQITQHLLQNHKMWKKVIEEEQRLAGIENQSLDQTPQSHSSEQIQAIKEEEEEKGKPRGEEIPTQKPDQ
Chain of 5-hydroxytryptamine receptor 2B (P41595 whole entry): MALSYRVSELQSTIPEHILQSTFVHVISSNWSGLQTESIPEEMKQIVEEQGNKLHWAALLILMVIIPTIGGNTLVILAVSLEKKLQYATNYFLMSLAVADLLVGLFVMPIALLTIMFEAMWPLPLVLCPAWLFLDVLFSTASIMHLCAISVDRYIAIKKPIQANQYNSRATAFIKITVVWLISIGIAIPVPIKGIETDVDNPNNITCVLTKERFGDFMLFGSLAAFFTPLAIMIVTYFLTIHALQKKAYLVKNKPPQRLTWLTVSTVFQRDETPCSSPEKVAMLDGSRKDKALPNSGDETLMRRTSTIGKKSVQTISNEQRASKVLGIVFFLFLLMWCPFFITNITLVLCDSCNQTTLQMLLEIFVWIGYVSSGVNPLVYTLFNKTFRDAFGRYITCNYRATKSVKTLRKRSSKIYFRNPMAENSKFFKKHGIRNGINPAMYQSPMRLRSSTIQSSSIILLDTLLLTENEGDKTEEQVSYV
Chain of Prostaglandin G/H synthase 1 (P23219 whole entry): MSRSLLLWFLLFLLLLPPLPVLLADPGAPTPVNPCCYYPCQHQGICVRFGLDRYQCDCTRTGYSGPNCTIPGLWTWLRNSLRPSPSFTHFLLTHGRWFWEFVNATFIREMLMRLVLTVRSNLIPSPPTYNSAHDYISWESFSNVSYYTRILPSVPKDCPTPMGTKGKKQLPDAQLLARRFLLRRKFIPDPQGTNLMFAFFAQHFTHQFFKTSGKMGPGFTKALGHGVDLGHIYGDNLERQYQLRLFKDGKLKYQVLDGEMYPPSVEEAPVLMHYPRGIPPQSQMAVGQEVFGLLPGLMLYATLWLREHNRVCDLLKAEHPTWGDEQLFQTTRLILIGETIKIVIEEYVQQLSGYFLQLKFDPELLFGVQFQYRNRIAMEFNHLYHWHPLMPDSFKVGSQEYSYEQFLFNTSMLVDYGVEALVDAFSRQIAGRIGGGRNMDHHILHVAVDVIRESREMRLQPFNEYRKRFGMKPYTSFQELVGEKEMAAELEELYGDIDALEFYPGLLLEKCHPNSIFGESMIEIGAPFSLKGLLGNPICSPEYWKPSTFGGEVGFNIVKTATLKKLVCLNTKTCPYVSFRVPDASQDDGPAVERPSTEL

| Compound | AC50 [1] [µM] | AC50 [2] [µM] | AC50 [3] [µM] | AC50 [4] [µM] | AC50 [5] [µM] | AC50 [6] [µM] | AC50 [7] [µM] | AC50 (Mu-type opioid receptor) [µM] | AC50 (Prothrombin) [µM] | AC50 [8] [µM] | AC50 (Histamine H3 receptor) [µM] | AC50 (D(1A) dopamine receptor) [µM] |
| --- | --- | --- | --- | --- | --- | --- | --- | --- | --- | --- | --- | --- |
| O=C(O)c1cccc(-c2noc(-c3ccccc3F)n2)c1 | > 30 | > 30 | > 30 | > 30 | > 30 | > 30 | > 30 | > 30 | > 30 | > 30 | > 30 | > 30 |
| CO/N=C(\C(=O)N[C@@H]1C(=O)N2C(C(=O)OCOC(=O)C(C)(C)C)=C(C)CS[C@H]12)c1csc(N)n1 | > 30 | > 30 | > 30 | > 30 | > 30 | > 30 | > 30 | > 30 | > 30 | > 30 | > 30 | > 30 |
| Cc1c(O)cccc1C(=O)N[C@@H](CSc1ccccc1)[C@H](O)CN1C[C@H]2CCCC[C@H]2C[C@H]1C(=O)NC(C)(C)C | > 30 | > 30 | > 30 | > 30 | > 30 | > 30 | > 30 | 15.3 | > 30 | > 30 | > 30 |  |
| CCCC1C(=O)N2C(N(C)C)=Nc3ccc(C)cc3N2C1=O (configuration not stated) [APAZONE] | > 30 | > 30 | > 30 | > 30 | > 30 | > 30 | > 30 | > 30 | > 30 | 6.16 | > 30 | > 30 |
| NS(=O)(=O)c1cc(-c2nnn[nH]2)c(NCc2cccs2)cc1Cl [AZOSEMIDE] |  |  |  |  |  | > 30 |  |  |  |  |  |  |
| C[N+](C)(C)CC(=O)O [BETAINE] |  |  |  |  |  | > 30 |  |  |  |  |  |  |
| CCCC(=O)N1CCCN(c2nc(N)c3cc(OC)c(OC)cc3n2)CC1 [BUNAZOSIN] |  |  |  |  |  | 4.5 |  |  |  |  |  |  |
| CCCCN(CCCC)CCCOC(=O)c1ccc(N)cc1 [BUTACAINE] | > 30 | > 30 | > 30 | > 30 | 2.97 | 5.4 | 16.3 | > 30 | > 30 | > 30 | > 30 | > 30 |
| C[N+](C)(C)CCOC(N)=O [CARBAMOYLCHOLINE] |  |  |  |  |  | > 30 |  |  |  |  |  |  |
| N[C@@H](CSCC(=O)O)C(=O)O [CARBOCYSTEINE] |  |  |  |  |  | > 30 |  |  |  |  |  |  |
| CC(C)(N)Cc1ccc(Cl)cc1 [CHLORPHENTERMINE] |  |  |  |  |  | > 30 |  |  |  |  |  |  |
| NS(=O)(=O)c1cc2c(cc1Cl)NC(CC1CCCC1)NS2(=O)=O (configuration not stated) [CYCLOPENTHIAZIDE] | > 30 | > 30 | > 30 | > 30 | > 30 | > 30 | > 30 | > 30 | > 30 | > 30 | > 30 | > 30 |
| CN(C)[C@@H]1C(O)=C(C(N)=O)C(=O)[C@@]2(O)C(O)=C3C(=O)c4c(O)ccc(Cl)c4[C@@H](O)[C@H]3C[C@@H]12 [DEMECLOCYCLINE] |  |  |  |  |  | > 30 |  |  |  |  |  |  |
| C[C@@H]1C[C@H]2[C@@H]3CCC4=CC(=O)C=C[C@]4(C)[C@@]3(F)[C@@H](O)C[C@]2(C)[C@H]1C(=O)CO [DESOXIMETASONE] | > 30 | > 30 | > 30 | > 30 | > 30 | > 30 | > 30 | > 30 | > 30 | > 30 | > 30 | > 30 |
| NS(=O)(=O)c1cc(Cl)c(Cl)c(S(N)(=O)=O)c1 [DICHLORPHENAMIDE] |  |  |  |  |  | > 30 |  |  |  |  |  |  |
| C=C1C[C@@H]2[C@H](CC[C@]3(C)C(=O)CC[C@@H]23)[C@@]2(C)C=CC(=O)C=C12 [EXEMESTANE] |  |  |  |  |  | > 30 |  |  |  |  |  |  |
| CC(C(O)c1ccc(O)cc1)N1CCC(Cc2ccccc2)CC1 (configuration not stated) [IFENPRODIL] |  |  |  |  |  | 0.67 |  |  |  |  |  |  |
| CS(=O)(=O)Nc1cc2occ(NC=O)c(=O)c2cc1Oc1ccccc1 [IGURATIMOD] | > 30 | > 30 | > 30 | > 30 | > 30 | > 30 | > 30 | > 30 | > 30 | 4.33 | > 30 | > 30 |
| CC(=O)N(CC(O)CO)c1c(I)c(C(=O)NCC(O)CO)c(I)c(C(=O)NCC(O)CO)c1I (configuration not stated) [IOHEXOL] |  |  |  |  |  | > 30 |  |  |  |  |  |  |
| CN(CCCN1c2ccccc2CCc2ccccc21)CC(=O)c1ccc(Cl)cc1 [LOFEPRAMINE] |  |  |  |  |  | 3.3 |  |  |  |  |  |  |
| CC(=O)O[C@]1(C(C)=O)CC[C@H]2[C@@H]3C[C@H](C)C4=CC(=O)CC[C@]4(C)[C@H]3CC[C@@]21C [MEDROXYPROGESTERONE ACETATE] | > 30 | > 30 | > 30 | > 30 | > 30 | > 30 | 21.2 | > 30 | > 30 | > 30 | > 30 | > 30 |
| CCC1(c2cccc(O)c2)CCCCN(C)C1 (configuration not stated) [MEPTAZINOL] | > 30 | > 30 | > 30 | > 30 | > 30 | > 30 | 20.9 |  | > 30 | > 3 | > 30 | > 30 |
| CO[C@@]12[C@H](COC(N)=O)C3=C(C(=O)C(C)=C(N)C3=O)N1C[C@@H]1N[C@@H]12 [MITOMYCIN] | > 30 | > 30 | > 30 | > 30 | > 30 |  | > 30 | > 30 | > 30 | > 30 | > 30 | > 30 |
| CN(C/C=C/c1ccccc1)Cc1cccc2ccccc12 [NAFTIFINE] |  |  |  |  |  | 2.02 |  |  |  |  |  |  |
| CC(C)NCC1CCc2cc(CO)c([N+](=O)[O-])cc2N1 (configuration not stated) [OXAMNIQUINE] |  |  |  |  |  | > 30 |  |  |  |  |  |  |
| Oc1cccc2cccnc12 [OXYQUINOLINE] | > 30 | > 30 | > 30 | > 30 | > 30 |  | > 30 | > 30 | > 30 | > 30 | > 30 | > 30 |
| CN(C)CCCN1c2ccccc2Sc2ccccc21 [PROMAZINE] |  |  |  |  |  | 8.1 |  |  |  |  |  |  |
| O=P(O)(O)C(O)(Cc1cccnc1)P(=O)(O)O [RISEDRONIC ACID] |  |  |  |  |  | > 30 |  |  |  |  |  |  |
| CC(=O)N[C@H]1[C@H]([C@H](O)[C@H](O)CO)OC(C(=O)O)=C[C@@H]1N=C(N)N [ZANAMIVIR] |  |  |  |  |  | > 30 |  |  |  |  |  |  |
